How the values were obtained:
[1] = system: Monocraphella nivalis (Microdochium nivale); experiment: Monographella nivalis / liquid culture (foot rot cereals); assay type: cell-based; settings: 200 ppm in the formulation, inhibition of growth determined photometrically, compared to untreated checks, read-out: disease control
Description: (§1) Monocraphella nivalis (Microdochium nivale)/Liquid Culture (Foot Rot Cereals) Conidia of the fungus from cryogenic storage are directly mixed into nutrient broth (PDB potato dextrose broth). After placing a (DMSO) solution of test compound into a microtiter plate (96-well format), the nutrient broth containing the fungal spores is added. The test plates are incubated at 24° C. and the inhibition of growth is determined photometrically 4-5 days after application.

[2] = system: Mycosphaerella raminicola (Septoria tritici); experiment: Mycosphaerella graminicola / liquid culture (Septoria blotch); assay type: cell-based; settings: 200 ppm in the formulation, inhibition of growth determined photometrically, compared to untreated checks, read-out: disease control
Description: as §1, with “Mycosphaerella raminicola (Septoria tritici)/Liquid” for “Monocraphella nivalis (Microdochium nivale)/Liquid”, “(Septoria blotch)” for “(Foot Rot Cereals)”, “4 to 5” for “4-5”

[3] = system: Glomerella lacenarium (Colletotrichum lacenarium); experiment: Glomerella lagenarium / liquid culture (anthracnose); assay type: cell-based; settings: 200 ppm in the formulation, inhibition of growth measured photometrically, compared to untreated checks, read-out: disease control
Description: as §1, with “Glomerella lacenarium (Colletotrichum lacenarium)/Liquid” for “Monocraphella nivalis (Microdochium nivale)/Liquid”, “(Anthracnose)” for “(Foot Rot Cereals)”, “measured” for “determined”, “3 to 4” for “4-5”

[4] = system: Mycosphaerella arachidis (Cercospora arachidicola); experiment: Mycosphaerella arachidis / liquid culture (early leaf spot); assay type: cell-based; settings: 200 ppm in the formulation, inhibition of growth determined photometrically, compared to untreated checks, read-out: disease control
Description: as §1, with “Mycosphaerella arachidis (Cercospora arachidicola)/Liquid” for “Monocraphella nivalis (Microdochium nivale)/Liquid”, “(Early Leaf Spot)” for “(Foot Rot Cereals)”

[5] = system: Puccinia recondita f. Sp. Tritici; experiment: Puccinia recondita f. sp. tritici / wheat / leaf disc preventative (brown rust); assay type: in vivo; settings: foliar, 200 ppm in the formulation, wheat leaf segments cv. Kanzler, compared to untreated checks, read-out: disease control
Pyrenophora teres = Pyrenophora teres / barley / leaf disc preventative (net blotch); assay type: in vivo; settings: foliar, 200 ppm of the formulation, barley leaf segments cv. Hasso, compared to untreated checks, read-out: disease control
Description: Pyrenophora teres/Barley/Leaf Disc Preventative (Net Blotch) Barley leaf segments cv. Hasso are placed on agar in a multiwell plate (24-well format) and sprayed with the test compound formulated with DMSO and Tween20 and diluted in water. The leaf segments are inoculated with a spore suspension of the fungus 2 days after application. The inoculated leaf segments are incubated at 20° C. and 65% rh under a light regime of 12 h light/12 h darkness in a climate cabinet and the activity of a compound is assessed as disease control compared to untreated when an appropriate level of disease damage appears in untreated check leaf segments (5 to 7 days after application).

[6] = system: Blumeria graminis f. Sp. Tritici (Erysiphe graminis f. Sp. Tritici); experiment: Blumeria graminis f. sp. tritici / wheat / leaf disc preventative (powdery mildew on wheat); assay type: in vivo; settings: foliar, 200 ppm in the formulation, wheat leaf segments cv. Kanzler, compared to untreated checks, read-out: disease control
Text: Blumeria graminis f. Sp. Tritici (Erysiphe graminis f. Sp. Tritici)/Wheat/Leaf Disc Preventative (Powdery Mildew on Wheat) Wheat leaf segments cv. Kanzler are placed on agar in a multiwell plate (24-well format) and sprayed with the test compound formulated with DMSO and Tween20 and diluted in water. The leaf disks are inoculated by shaking powdery mildew infected plants above the test plates 1 day after application.

[7] = system: Botrvotinia fuckeliana (Botrvtis cinerea); experiment: Botryotinia fuckeliana / liquid culture (gray mould); assay type: cell-based; settings: Botrytis cinerea, 200 ppm in the formulation, inhibition of growth determined photometrically, compared to untreated checks, read-out: disease control
Description: as §1, with “Botrvotinia fuckeliana (Botrvtis cinerea)/Liquid” for “Monocraphella nivalis (Microdochium nivale)/Liquid”, “(Gray Mould)” for “(Foot Rot Cereals)”, “(Vogels” for “(PDB potato dextrose”, “3-4” for “4-5”

[8] = system: Magnaporthe risea (Pyricularia oryzae); experiment: whole plant or invertebrate; assay type: in vivo; settings: foliar, read-out: disease control
Gaeumannomyces graminis = Gaeumannomyces graminis / liquid culture (take-all of cereals); assay type: cell-based; settings: 200 ppm in the formulation, inhibition of growth determined photometrically, compared to untreated control, read-out: disease control
Description: Gaeumannomyces graminis/Liquid Culture (Take-All of Cereals) Mycelial fragments of the fungus from cryogenic storage were directly mixed into nutrient broth (PDB potato dextrose broth). After placing a (DMSO) solution of test compound into a microtiter plate (96-well format), the nutrient broth containing the fungal spores is added. The test plates are incubated at 24° C. and the inhibition of growth is determined photometrically 4-5 days after application.

## Cc1sc(Nc2cc(F)nc(F)c2)nc1C(=O)NC1CCC12CCCC2 (stereo not shown) [I.s.43, 2-[(2,6-difluoro-4-pyridyl)amino]-5-methyl-N-spiro[3.4]octan-3-yl-thiazole-4-carboxamide]
[1]
  inhibition of growth at 200 ppm: ≥ 80%
[2]
  inhibition of growth at 200 ppm: ≥ 80%
[3]
  inhibition of growth at 200 ppm: ≥ 80%
[4]
  inhibition of growth at 200 ppm: ≥ 80%
[5]
  pest or weed control at 200 ppm: ≥ 80%
Pyrenophora teres
  pest or weed control at 200 µg/mL: ≥ 80%
[6]
  pest or weed control at 200 ppm: ≥ 80%
[7]
  inhibition of growth at 200 ppm: ≥ 80%
other
  melting point: 156 to 162 °C
[8]
  pest or weed control at 200 ppm: ≥ 80%

## O=C(NC1CCC12CCC2)c1nc(Nc2cc(F)cc(F)c2)sc1Br (stereo not shown) [I.r.2, 5-bromo-2-(3,5-difluoroanilino)-N-spiro[3.3]heptan-7-yl-thiazole-4-carboxamide]
[1]
  inhibition of growth at 200 ppm: ≥ 80%
[2]
  inhibition of growth at 200 ppm: ≥ 80%
Gaeumannomyces graminis
  inhibition of growth at 200 ppm: ≥ 80%
[3]
  inhibition of growth at 200 ppm: ≥ 80%
[4]
  inhibition of growth at 200 ppm: ≥ 80%
[5]
  pest or weed control at 200 ppm: ≥ 80%
Pyrenophora teres
  pest or weed control at 200 µg/mL: ≥ 80%
[6]
  pest or weed control at 200 ppm: ≥ 80%
[7]
  inhibition of growth at 200 ppm: ≥ 80%
[8]
  pest or weed control at 200 ppm: ≥ 80%

## CC12CCCC(NC(=O)c3nc(Nc4cc(F)cc(F)c4)sc3Br)C1CC2 (stereo not shown) [I.ah.2, 5-bromo-2-(3,5-difluoroanilino)-N-(6-methyl-2-bicyclo[4.2.0]octanyl)thiazole-4-carboxamide]
[1]
  inhibition of growth at 200 ppm: ≥ 80%
[2]
  inhibition of growth at 200 ppm: ≥ 80%
Gaeumannomyces graminis
  inhibition of growth at 200 ppm: ≥ 80%
[3]
  inhibition of growth at 200 ppm: ≥ 80%
[5]
  pest or weed control at 200 ppm: ≥ 80%
[6]
  pest or weed control at 200 ppm: ≥ 80%
[7]
  inhibition of growth at 200 ppm: ≥ 80%
[8]
  pest or weed control at 200 ppm: ≥ 80%

## Cc1sc(Nc2cc(F)cc(F)c2)nc1C(=O)NC1CCCC2(C)CCC12 (stereo not shown) [I.ah.3, 2-(3,5-difluoroanilino)-5-methyl-N-(6-methyl-2-bicyclo[4.2.0]octanyl)thiazole-4-carboxamide]
[1]
  inhibition of growth at 200 ppm: ≥ 80%
[2]
  inhibition of growth at 200 ppm: ≥ 80%
Gaeumannomyces graminis
  inhibition of growth at 200 ppm: ≥ 80%
[3]
  inhibition of growth at 200 ppm: ≥ 80%
[4]
  inhibition of growth at 200 ppm: ≥ 80%
[7]
  inhibition of growth at 200 ppm: ≥ 80%

## Cc1sc(Nc2cc(F)cc(F)c2)nc1C(=O)NC1CCC12CCC2 (stereo not shown) [I.r.3, 2-(3,5-difluoroanilino)-5-methyl-N-spiro[3.3]heptan-7-yl-thiazole-4-carboxamide]
[1]
  inhibition of growth at 200 ppm: ≥ 80%
[2]
  inhibition of growth at 200 ppm: ≥ 80%
Gaeumannomyces graminis
  inhibition of growth at 200 ppm: ≥ 80%
[3]
  inhibition of growth at 200 ppm: ≥ 80%
[4]
  inhibition of growth at 200 ppm: ≥ 80%
[5]
  pest or weed control at 200 ppm: ≥ 80%
Pyrenophora teres
  pest or weed control at 200 µg/mL: ≥ 80%
[6]
  pest or weed control at 200 ppm: ≥ 80%
[7]
  inhibition of growth at 200 ppm: ≥ 80%
[8]
  pest or weed control at 200 ppm: ≥ 80%

## CC1(C)C2CCCC2C1NC(=O)c1nc(Nc2cc(F)cc(F)c2)sc1Br (stereo not shown) [I.y.2, 5-bromo-2-(3,5-difluoroanilino)-N-(6,6-dimethyl-7-bicyclo[3.2.0]heptanyl)thiazole-4-carboxamide]
[1]
  inhibition of growth at 200 ppm: ≥ 80%
[2]
  inhibition of growth at 200 ppm: ≥ 80%
Gaeumannomyces graminis
  inhibition of growth at 200 ppm: ≥ 80%
[3]
  inhibition of growth at 200 ppm: ≥ 80%
[4]
  inhibition of growth at 200 ppm: ≥ 80%
[5]
  pest or weed control at 200 ppm: ≥ 80%
Pyrenophora teres
  pest or weed control at 200 µg/mL: ≥ 80%
[6]
  pest or weed control at 200 ppm: ≥ 80%
[7]
  inhibition of growth at 200 ppm: ≥ 80%
[8]
  pest or weed control at 200 ppm: ≥ 80%

## Cc1sc(Nc2cc(F)cc(F)c2)nc1C(=O)NC1CC12CC2 (stereo not shown) [I.bb.3, 2-(3,5-difluoroanilino)-5-methyl-N-spiro[2.2]pentan-2-yl-thiazole-4-carboxamide]
[1]
  inhibition of growth at 200 ppm: ≥ 80%
[2]
  inhibition of growth at 200 ppm: ≥ 80%
[3]
  inhibition of growth at 200 ppm: ≥ 80%
[4]
  inhibition of growth at 200 ppm: ≥ 80%
[5]
  pest or weed control at 200 ppm: ≥ 80%
[6]
  pest or weed control at 200 ppm: ≥ 80%
other
  melting point: 145 to 175 °C
[8]
  pest or weed control at 200 ppm: ≥ 80%

## Cc1sc(Nc2cc(F)nc(F)c2)nc1C(=O)NC1CC12CC2 (stereo not shown) [I.bb.43, 2-[(2,6-difluoro-4-pyridyl)amino]-5-methyl-N-spiro[2.2]pentan-2-yl-thiazole-4-carboxamide]
[1]
  inhibition of growth at 200 ppm: ≥ 80%
[2]
  inhibition of growth at 200 ppm: ≥ 80%
[3]
  inhibition of growth at 200 ppm: ≥ 80%
[4]
  inhibition of growth at 200 ppm: ≥ 80%
[5]
  pest or weed control at 200 ppm: ≥ 80%
Pyrenophora teres
  pest or weed control at 200 µg/mL: ≥ 80%
[6]
  pest or weed control at 200 ppm: ≥ 80%
other
  melting point: 129 to 158 °C
[8]
  pest or weed control at 200 ppm: ≥ 80%

## Cc1sc(Nc2cc(F)cc(F)c2)nc1C(=O)NC1C2CCCC2C1(C)C (stereo not shown) [I.y.3, 2-(3,5-difluoroanilino)-N-(6,6-dimethyl-7-bicyclo[3.2.0]heptanyl)-5-methyl-thiazole-4-carboxamide]
[1]
  inhibition of growth at 200 ppm: ≥ 80%
[2]
  inhibition of growth at 200 ppm: ≥ 80%
Gaeumannomyces graminis
  inhibition of growth at 200 ppm: ≥ 80%
[3]
  inhibition of growth at 200 ppm: ≥ 80%
[4]
  inhibition of growth at 200 ppm: ≥ 80%
[5]
  pest or weed control at 200 ppm: ≥ 80%
[6]
  pest or weed control at 200 ppm: ≥ 80%
[8]
  pest or weed control at 200 ppm: ≥ 80%

## Cc1sc(Nc2cc(F)cc(F)c2)nc1C(=O)NC(C)(C#N)C(C)C (stereo not shown) [Compound I.n.3, N-(1-cyano-1,2-dimethyl-propyl)-2-(3,5-difluoroanilino)-5-methyl-thiazole-4-carboxamide]
[1]
  inhibition of growth at 200 ppm: ≥ 80%
[2]
  inhibition of growth at 200 ppm: ≥ 80%
Gaeumannomyces graminis
  inhibition of growth at 200 ppm: ≥ 80%
[3]
  inhibition of growth at 200 ppm: ≥ 80%
[4]
  inhibition of growth at 200 ppm: ≥ 80%
[5]
  pest or weed control at 200 ppm: ≥ 80%
[6]
  pest or weed control at 200 ppm: ≥ 80%
[7]
  inhibition of growth at 200 ppm: ≥ 80%
[8]
  pest or weed control at 200 ppm: ≥ 80%

## CC(NC(=O)c1nc(Nc2cc(F)cc(F)c2)sc1Br)C1CCCCC1 (stereo not shown) [Compound I.e.2, 5-bromo-N-(1-cyclohexylethyl)-2-(3,5-difluoroanilino)thiazole-4-carboxamide]
[1]
  inhibition of growth at 200 ppm: ≥ 80%
[2]
  inhibition of growth at 200 ppm: ≥ 80%
Gaeumannomyces graminis
  inhibition of growth at 200 ppm: ≥ 80%
[3]
  inhibition of growth at 200 ppm: ≥ 80%
[4]
  inhibition of growth at 200 ppm: ≥ 80%
[5]
  pest or weed control at 200 ppm: ≥ 80%
Pyrenophora teres
  pest or weed control at 200 µg/mL: ≥ 80%
[6]
  pest or weed control at 200 ppm: ≥ 80%
[7]
  inhibition of growth at 200 ppm: ≥ 80%

## Cc1sc(Nc2cc(F)cc(F)c2)nc1C(=O)NC1CCC12CCCC2 (stereo not shown) [I.s.3, 2-(3,5-difluoroanilino)-5-methyl-N-spiro[3.4]octan-3-yl-thiazole-4-carboxamide]
[1]
  inhibition of growth at 200 ppm: ≥ 80%
[2]
  inhibition of growth at 200 ppm: ≥ 80%
Gaeumannomyces graminis
  inhibition of growth at 200 ppm: ≥ 80%
[3]
  inhibition of growth at 200 ppm: ≥ 80%
[4]
  inhibition of growth at 200 ppm: ≥ 80%
[5]
  pest or weed control at 200 ppm: ≥ 80%
Pyrenophora teres
  pest or weed control at 200 µg/mL: ≥ 80%
[6]
  pest or weed control at 200 ppm: ≥ 80%
[8]
  pest or weed control at 200 ppm: ≥ 80%

## Cc1sc(Nc2cc(F)cc(F)c2)nc1C(=O)NC(C)C1CCCCC1 (stereo not shown) [I.e.3, N-(1-cyclohexylethyl)-2-(3,5-difluoroanilino)-5-methyl-thiazole-4-carboxamide]
[1]
  inhibition of growth at 200 ppm: ≥ 80%
[2]
  inhibition of growth at 200 ppm: ≥ 80%
Gaeumannomyces graminis
  inhibition of growth at 200 ppm: ≥ 80%
[3]
  inhibition of growth at 200 ppm: ≥ 80%
[4]
  inhibition of growth at 200 ppm: ≥ 80%
[5]
  pest or weed control at 200 ppm: ≥ 80%
Pyrenophora teres
  pest or weed control at 200 µg/mL: ≥ 80%
[6]
  pest or weed control at 200 ppm: ≥ 80%
[8]
  pest or weed control at 200 ppm: ≥ 80%
